Reference: patent US9409866B2, “Pyridine-2-amides useful as CB2 agonists” (Hoffmann-La Roche Inc., priority 2012, dated 2016)
Like-named read-outs stand apart in the source and are kept apart here.

Columns and labels:
human CB1 receptors = human CB1 receptors (Homo sapiens (Human), UniProt P21554); test: functional cAMP assay, CHO cells expressing human CB1; format: cell-based
Procedure, shortened: (§1)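 CHO cells with human CB1 or CB2 were switched to Krebs Ringer bicarbonate buffer with 1 mM IBMX for 30 min at 30 °C, then given compound for 30 min at 30 °C. cAMP was measured by time-resolved FRET against a cAMP standard curve, and EC50 values were calculated.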

human CB2 receptors = human CB2 receptors (Homo sapiens (Human), UniProt P34972); test: functional cAMP assay, CHO cells expressing human CB2; format: cell-based
Procedure, shortened: as §1

[1] = functional cAMP assay, CHO cells expressing human CB1; read-out: Human CB1 EC50
[2] = Human CB1 EC50 (uM), functional cAMP assay, CHO cells expressing human CB1

Sequence of human CB1 receptors (P21554 whole entry): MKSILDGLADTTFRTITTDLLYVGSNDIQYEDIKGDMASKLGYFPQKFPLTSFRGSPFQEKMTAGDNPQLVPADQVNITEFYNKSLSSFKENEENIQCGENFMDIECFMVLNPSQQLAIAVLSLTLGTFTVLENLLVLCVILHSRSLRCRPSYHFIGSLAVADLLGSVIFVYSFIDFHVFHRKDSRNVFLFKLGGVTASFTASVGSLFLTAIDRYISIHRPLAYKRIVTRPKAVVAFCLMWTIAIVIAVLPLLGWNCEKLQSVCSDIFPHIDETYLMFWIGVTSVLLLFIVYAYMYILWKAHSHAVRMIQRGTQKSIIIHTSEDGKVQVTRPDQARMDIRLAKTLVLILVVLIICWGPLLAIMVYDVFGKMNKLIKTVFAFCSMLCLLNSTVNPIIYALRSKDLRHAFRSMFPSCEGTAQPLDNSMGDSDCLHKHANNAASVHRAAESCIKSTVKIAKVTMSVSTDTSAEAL
Sequence of human CB2 receptors (P34972 whole entry): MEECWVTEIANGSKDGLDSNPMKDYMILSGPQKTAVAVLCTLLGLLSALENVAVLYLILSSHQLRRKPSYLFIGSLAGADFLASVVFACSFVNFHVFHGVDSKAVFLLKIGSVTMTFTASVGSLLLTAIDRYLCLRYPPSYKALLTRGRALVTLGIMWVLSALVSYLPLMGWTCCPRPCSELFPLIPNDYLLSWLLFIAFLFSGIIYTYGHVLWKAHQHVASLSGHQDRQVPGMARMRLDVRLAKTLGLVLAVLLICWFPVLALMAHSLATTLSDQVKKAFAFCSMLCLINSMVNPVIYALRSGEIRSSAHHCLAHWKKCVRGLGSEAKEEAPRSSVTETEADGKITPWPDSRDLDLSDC

| SMILES | EC50 (human CB1 receptors; [1]) [µM] | EC50 (human CB2 receptors; read-out: Human CB2 EC50) [µM] | EC50 (human CB1 receptors; [2]) [µM] | EC50 (human CB2 receptors; Human CB2 EC50 (uM)) [µM] | EC50 (human CB1 receptors; read-out: Human CB1 EC50; functional cAMP assay, CHO cells expressing human CB1) [µM] |
| --- | --- | --- | --- | --- | --- |
| Cc1nc(C(C)(NC(=O)c2cc(OCC(F)(F)F)c(N3CC(F)(F)C3)cn2)C2CC2)no1 (centres unmarked) [Example 78, 5-(3,3-Difluoro-azetidin-1-yl)-4-(2,2,2-trifluoro-ethoxy)-pyridine-2-carboxylic acid [1-cyclopropyl-1-(5-methyl-[1,2,4]oxadiazol-3-yl)-ethyl]-amide] | > 10 | 0.0061 |  |  |  |
| O=C(N[C@@H](c1cccnc1)C(F)(F)F)c1cc(Cc2ccc(F)cc2)c(Cl)cn1 [Example 41, 5-Chloro-4-(4-fluoro-benzyl)-pyridine-2-carboxylic acid ((S)-2,2,2-trifluoro-1-pyridin-3-yl-ethyl)-amide] | 0.145 | 0.0033 |  |  |  |
| NC(=O)CC1(NC(=O)c2cc(OCCF)c(C3CC3)cn2)CS(=O)(=O)C1 [Example 281, N-[3-(2-amino-2-oxoethyl)-1,1-dioxothietan-3-yl]-5-cyclopropyl-4-(2-fluoroethoxy)pyridine-2-carboxamide] | > 10 | 0.0231 |  |  |  |
| O=C(N[C@@H](c1cccnc1)C(F)(F)F)c1cc(OCc2ccc(F)cc2)c(Cl)cn1 [Example 40, 5-Chloro-4-(4-fluoro-benzyloxy)-pyridine-2-carboxylic acid ((S)-2,2,2-trifluoro-1-pyridin-3-yl-ethyl)-amide] | 0.0901 | 0.005 |  |  |  |
| CNC(=O)CC1(NC(=O)c2cc(OCC(F)(F)F)c(C3CC3)cn2)CS(=O)(=O)C1 [Example 282, 5-cyclopropyl-N-[3-[2-(methylamino)-2-oxoethyl]-1,1-dioxothietan-3-yl]-4-(2,2,2-trifluoroethoxy)pyridine-2-carboxamide] | > 10 | 0.659 |  |  |  |
| NC(=O)[C@@H]1CC(F)(F)CN1C(=O)c1cc(OCC(F)(F)F)c(C2CC2)cn1 [Example 115, (2S)-1-[5-cyclopropyl-4-(2,2,2-trifluoroethoxy)pyridine-2-carbonyl]-4,4-difluoropyrrolidine-2-carboxamide] | > 10 | 1.26 |  |  |  |
| CNC(=O)C(NC(=O)c1cc(OCC(F)(F)F)c(C2CC2)cn1)C(C)(C)F (centres unmarked) [Example 237, 5-cyclopropyl-N-[3-fluoro-3-methyl-1-(methylamino)-1-oxobutan-2-yl]-4-(2,2,2-trifluoroethoxy)pyridine-2-carboxamide] | > 10 | 0.017 |  |  |  |
| O=C(NC1(CO)CC1)c1cc(OCC2CC2)c(N2CC(F)(F)C2)cn1 [Example 53, 4-Cyclopropylmethoxy-5-(3,3-difluoro-azetidin-1-yl)-pyridine-2-carboxylic acid (1-hydroxymethyl-cyclopropyl)-amide] | > 10 | 0.0726 |  |  |  |
| CCN(C(=O)c1cc(OCC(F)(F)F)c(C2CC2)cn1)C(C)(C)C [Example 107, 5-Cyclopropyl-4-(2,2,2-trifluoro-ethoxy)-pyridine-2-carboxylic acid tert-butyl-ethyl-amide] | > 10 | 0.0822 |  |  |  |
| Cc1nc(C(C)(CS(C)(=O)=O)NC(=O)c2cc(O[C@@H](C)C(F)(F)F)c(C3(F)CCC3)cn2)no1 (stereo partly drawn) [Example 138, 5-(1-fluorocyclobutyl)-N-[2-(5-methyl-1,2,4-oxadiazol-3-yl)-1-methylsulfonylpropan-2-yl]-4-[(2S)-1,1,1-trifluoropropan-2-yl]oxypyridine-2-carboxamide] | > 10 | 0.0217 |  |  |  |
| CNC(=O)CC1(NC(=O)c2cc(OCC(F)(F)F)c(C3CC3)cn2)COC1 [Example 231, 5-cyclopropyl-N-[3-[2-(methylamino)-2-oxoethyl]oxetan-3-yl]-4-(2,2,2-trifluoroethoxy)pyridine-2-carboxamide] | > 10 | 0.547 |  |  |  |
| CC(CF)Oc1cc(C(=O)NC(C)(CC(N)=O)C2CC2)ncc1C1CC1 (centres unmarked) [Example 294, N-(4-amino-2-cyclopropyl-4-oxobutan-2-yl)-5-cyclopropyl-4-(1-fluoropropan-2-yloxy)picolinamide] | > 10 | 0.0006 |  |  |  |
| Cc1nc(C(C)(NC(=O)c2cc(O[C@@H](C)C(F)(F)F)c(N3CC(F)(F)C3)cn2)C2CC2)no1 (stereo partly drawn) [Example 96, 5-(3,3-Difluoro-azetidin-1-yl)-4-((S)-2,2,2-trifluoro-1-methyl-ethoxy)-pyridine-2-carboxylic acid [1-cyclopropyl-1-(5-methyl-[1,2,4]oxadiazol-3-yl)-ethyl]-amide] | 0.11 | 0.0014 |  |  |  |
| CC(CC(N)=O)(NC(=O)c1cc(OCC(F)(F)F)c(N2CC(F)(F)C2)cn1)C1CC1 (single isomer, unassigned) [Example 275, N-[4-amino-2-cyclopropyl-4-oxobutan-2-yl]-5-(3,3-difluoroazetidin-1-yl)-4-(2,2,2-trifluoroethoxy)pyridine-2-carboxamide] |  |  | > 10 | 0.0227 |  |
| CC(CC(N)=O)(NC(=O)c1cc(OCC(F)(F)F)c(C2(F)CCC2)cn1)C1CC1 (single isomer, unassigned) [Example 309, N-[4-amino-2-cyclopropyl-4-oxobutan-2-yl]-5-(1-fluorocyclobutyl)-4-(2,2,2-trifluoroethoxy)pyridine-2-carboxamide] |  |  | 0.475 | 0.002 |  |
| CC(C)(C)[C@H](CO)NC(=O)c1cc(OCC2CC2)c(Cl)cn1 [Example 29, 5-Chloro-4-cyclopropylmethoxy-pyridine-2-carboxylic acid ((R)-1-hydroxymethyl-2,2-dimethyl-propyl)-amide] | > 10 | 0.0646 |  |  |  |
| CNC(=O)C(NC(=O)c1cc(O[C@@H](C)C(F)(F)F)c(C2CC2)cn1)C(C)(C)C (stereo partly drawn) [Example 200, 5-cyclopropyl-N-[3,3-dimethyl-1-(methylamino)-1-oxobutan-2-yl]-4-[(2S)-1,1,1-trifluoropropan-2-yl]oxypyridine-2-carboxamide] | > 10 | 0.0026 |  |  |  |
| Cc1nc(C(C)(CC2CC2)NC(=O)c2cc(OC(C)CF)c(C3CC3)cn2)no1 (single isomer, unassigned) [Example 290, 5-cyclopropyl-N-(1-cyclopropyl-2-(5-methyl-1,2,4-oxadiazol-3-yl)propan-2-yl)-4-(1-fluoropropan-2-yloxy)picolinamide] |  | 0.0006 |  |  | > 10 |
| Cc1nnc(C(C)(CC2COC2)NC(=O)c2cc(O[C@@H](C)C(F)(F)F)c(C3CC3)cn2)o1 (stereo partly drawn) [Example 190, 5-cyclopropyl-N-[2-(5-methyl-1,3,4-oxadiazol-2-yl)-1-(oxetan-3-yl)propan-2-yl]-4-[(2S)-1,1,1-trifluoropropan-2-yl]oxypyridine-2-carboxamide] | > 10 | 0.559 |  |  |  |
| CC(C)(C)C(NC(=O)c1cc(OCC(F)(F)F)c(C2CC2)cn1)C(=O)N1CCC12COC2 (centres unmarked) [Example 198, 5-cyclopropyl-N-[3,3-dimethyl-1-(6-oxa-1-azaspiro[3.3]heptan-1-yl)-1-oxobutan-2-yl]-4-(2,2,2-trifluoroethoxy)pyridine-2-carboxamide] | > 10 | 0.0364 |  |  |  |
| CNC(=O)CC1(NC(=O)c2cc(O[C@@H](C)C(F)(F)F)c(C3CC3)cn2)COC1 [Example 232, 5-cyclopropyl-N-[3-[2-(methylamino)-2-oxoethyl]oxetan-3-yl]-4-[(2S)-1,1,1-trifluoropropan-2-yl]oxypyridine-2-carboxamide] | > 10 | 0.116 |  |  |  |
| Cc1nc([C@@](C)(CS(C)(=O)=O)NC(=O)c2cc(OCC(F)(F)F)c(C3CC3)cn2)no1 (single isomer, unassigned) [Example 98, 5-Cyclopropyl-4-(2,2,2-trifluoro-ethoxy)-pyridine-2-carboxylic acid [2-methanesulfonyl-1-methyl-1-(5-methyl-[1,2,4]oxadiazol-3-yl)-ethyl]-amide] |  |  | > 10 | 0.0706 |  |
| C[C@H](Oc1cc(C(=O)NC(C(N)=O)C(C)(C)C)ncc1C1CC1)C(F)(F)F (stereo partly drawn) [Example 239, N-(1-amino-3,3-dimethyl-1-oxobutan-2-yl)-5-cyclopropyl-4-[(2S)-1,1,1-trifluoropropan-2-yl]oxypyridine-2-carboxamide] | > 10 | 0.0015 |  |  |  |
| NC(=O)CC1(NC(=O)c2cc(OCC(F)F)c(C3CC3)cn2)CS(=O)(=O)C1 [Example 274, N-[3-(2-amino-2-oxoethyl)-1,1-dioxothietan-3-yl]-5-cyclopropyl-4-(2,2-difluoroethoxy)pyridine-2-carboxamide] | > 10 | 0.0101 |  |  |  |
| CC(C)C[C@H](NC(=O)c1cc(OCC2CC2)c(Br)cn1)C(N)=O [Example 9, 5-Bromo-4-cyclopropylmethoxy-pyridine-2-carboxylic acid ((S)-1-carbamoyl-3-methyl-butyl)-amide] | > 10 | 0.0329 |  |  |  |
| Cc1nc(C(C)(CC2CC2)NC(=O)c2cc(O[C@@H](C)C(F)(F)F)c(C3(F)COC3)cn2)no1 (stereo partly drawn) [Example 170, N-[1-cyclopropyl-2-(5-methyl-1,2,4-oxadiazol-3-yl)propan-2-yl]-5-(3-fluorooxetan-3-yl)-4-[(2S)-1,1,1-trifluoropropan-2-yl]oxypyridine-2-carboxamide] | > 10 | 0.0254 |  |  |  |
| CNC(=O)C(NC(=O)c1cc(O[C@@H](C)C(F)(F)F)c(C2CC2)cn1)C(C)(C)O (stereo partly drawn) [Example 252, 5-cyclopropyl-N-[3-hydroxy-3-methyl-1-(methylamino)-1-oxobutan-2-yl]-4-[(2S)-1,1,1-trifluoropropan-2-yl]oxypyridine-2-carboxamide] | > 10 | 0.344 |  |  |  |
| CC(CC(N)=O)(NC(=O)c1cc(OCC(F)F)c(C2CC2)cn1)C1CC1 (single isomer, unassigned) [Example 272, N-[4-amino-2-cyclopropyl-4-oxobutan-2-yl]-5-cyclopropyl-4-(2,2-difluoroethoxy)pyridine-2-carboxamide] |  |  | > 10 | 0.0495 |  |
